Results taken from BigSolDB 2.1.

Cc1cnc(N)s1
Details	solubility (mole fraction)
in 1,4-dioxane, 278.15 K	0.0399
in 1,4-dioxane, 280.65 K	0.0431
in 1,4-dioxane, 283.15 K	0.0474
in 1,4-dioxane, 285.65 K	0.0517
in 1,4-dioxane, 288.15 K	0.0563
in 1,4-dioxane, 290.65 K	0.0618
in 1,4-dioxane, 293.15 K	0.0673
in 1,4-dioxane, 295.65 K	0.0737
in 1,4-dioxane, 298.15 K	0.0806
in 1,4-dioxane, 300.65 K	0.0881
in 1,4-dioxane, 303.15 K	0.0961
in 1,4-dioxane, 305.65 K	0.105
in 1,4-dioxane, 308.15 K	0.115
in 1,4-dioxane, 310.65 K	0.126
in 1,4-dioxane, 313.15 K	0.138
in 2-butanone, 278.15 K	0.0365
in 2-butanone, 280.65 K	0.0405
in 2-butanone, 283.15 K	0.0448
in 2-butanone, 285.65 K	0.049
in 2-butanone, 288.15 K	0.0535
in 2-butanone, 290.65 K	0.0585
in 2-butanone, 293.15 K	0.064
in 2-butanone, 295.65 K	0.0705
in 2-butanone, 298.15 K	0.0776
in 2-butanone, 300.65 K	0.0849
in 2-butanone, 303.15 K	0.093
in 2-butanone, 305.65 K	0.101
in 2-butanone, 308.15 K	0.111
in 2-butanone, 310.65 K	0.121
in 2-butanone, 313.15 K	0.133
in acetone, 278.15 K	0.0493
in acetone, 280.65 K	0.0535
in acetone, 283.15 K	0.0587
in acetone, 285.65 K	0.0637
in acetone, 288.15 K	0.0692
in acetone, 290.65 K	0.0756
in acetone, 293.15 K	0.0825
in acetone, 295.65 K	0.09
in acetone, 298.15 K	0.0979
in acetone, 300.65 K	0.107
in acetone, 303.15 K	0.116
in acetone, 305.65 K	0.126
in acetone, 308.15 K	0.137
in acetone, 310.65 K	0.15
in acetone, 313.15 K	0.163
in acetonitrile, 278.15 K	0.0284
in acetonitrile, 280.65 K	0.031
in acetonitrile, 283.15 K	0.0341
in acetonitrile, 285.65 K	0.0372
in acetonitrile, 288.15 K	0.0406
in acetonitrile, 290.65 K	0.0446
in acetonitrile, 293.15 K	0.0489
in acetonitrile, 295.65 K	0.0536
in acetonitrile, 298.15 K	0.0586
in acetonitrile, 300.65 K	0.0638
in acetonitrile, 303.15 K	0.0699
in acetonitrile, 305.65 K	0.0763
in acetonitrile, 308.15 K	0.0838
in acetonitrile, 310.65 K	0.0921
in acetonitrile, 313.15 K	0.1
in cyclohexane, 283.15 K	0.000429
in cyclohexane, 285.65 K	0.000491
in cyclohexane, 288.15 K	0.000566
in cyclohexane, 290.65 K	0.000645
in cyclohexane, 293.15 K	0.000736
in cyclohexane, 295.65 K	0.000839
in cyclohexane, 298.15 K	0.000953
in cyclohexane, 300.65 K	0.00108
in cyclohexane, 303.15 K	0.00123
in cyclohexane, 305.65 K	0.00138
in cyclohexane, 308.15 K	0.00156
in cyclohexane, 310.65 K	0.00173
in cyclohexane, 313.15 K	0.00194
in ethanol, 278.15 K	0.0486
in ethanol, 280.65 K	0.0529
in ethanol, 283.15 K	0.0574
in ethanol, 285.65 K	0.0629
in ethanol, 288.15 K	0.0677
in ethanol, 290.65 K	0.0736
in ethanol, 293.15 K	0.0799
in ethanol, 295.65 K	0.0869
in ethanol, 298.15 K	0.095
in ethanol, 300.65 K	0.103
in ethanol, 303.15 K	0.112
in ethanol, 305.65 K	0.122
in ethanol, 308.15 K	0.133
in ethanol, 310.65 K	0.144
in ethanol, 313.15 K	0.157
in ethyl acetate, 278.15 K	0.0523
in ethyl acetate, 280.65 K	0.0567
in ethyl acetate, 283.15 K	0.0614
in ethyl acetate, 285.65 K	0.067
in ethyl acetate, 288.15 K	0.0726
in ethyl acetate, 290.65 K	0.0791
in ethyl acetate, 293.15 K	0.086
in ethyl acetate, 295.65 K	0.0934
in ethyl acetate, 298.15 K	0.101
in ethyl acetate, 300.65 K	0.109
in ethyl acetate, 303.15 K	0.118
in ethyl acetate, 305.65 K	0.129
in ethyl acetate, 308.15 K	0.14
in ethyl acetate, 310.65 K	0.152
in ethyl acetate, 313.15 K	0.164
in isopropanol, 278.15 K	0.0345
in isopropanol, 280.65 K	0.0381
in isopropanol, 283.15 K	0.0415
in isopropanol, 285.65 K	0.0452
in isopropanol, 288.15 K	0.0497
in isopropanol, 290.65 K	0.0546
in isopropanol, 293.15 K	0.0594
in isopropanol, 295.65 K	0.0647
in isopropanol, 298.15 K	0.0709
in isopropanol, 300.65 K	0.0775
in isopropanol, 303.15 K	0.085
in isopropanol, 305.65 K	0.0927
in isopropanol, 308.15 K	0.102
in isopropanol, 310.65 K	0.112
in isopropanol, 313.15 K	0.121
in methanol, 278.15 K	0.0594
in methanol, 280.65 K	0.0639
in methanol, 283.15 K	0.0686
in methanol, 285.65 K	0.0742
in methanol, 288.15 K	0.0796
in methanol, 290.65 K	0.086
in methanol, 293.15 K	0.0927
in methanol, 295.65 K	0.0999
in methanol, 298.15 K	0.107
in methanol, 300.65 K	0.116
in methanol, 303.15 K	0.125
in methanol, 305.65 K	0.135
in methanol, 308.15 K	0.146
in methanol, 310.65 K	0.157
in methanol, 313.15 K	0.169
in n-propanol, 278.15 K	0.037
in n-propanol, 280.65 K	0.0404
in n-propanol, 283.15 K	0.0441
in n-propanol, 285.65 K	0.0482
in n-propanol, 288.15 K	0.0526
in n-propanol, 290.65 K	0.0575
in n-propanol, 293.15 K	0.0628
in n-propanol, 295.65 K	0.0686
in n-propanol, 298.15 K	0.075
in n-propanol, 300.65 K	0.082
in n-propanol, 303.15 K	0.0898
in n-propanol, 305.65 K	0.098
in n-propanol, 308.15 K	0.107
in n-propanol, 310.65 K	0.117
in n-propanol, 313.15 K	0.128
in toluene, 278.15 K	0.0109
in toluene, 280.65 K	0.0121
in toluene, 283.15 K	0.0136
in toluene, 285.65 K	0.0149
in toluene, 288.15 K	0.0167
in toluene, 290.65 K	0.0185
in toluene, 293.15 K	0.0205
in toluene, 295.65 K	0.0225
in toluene, 298.15 K	0.0251
in toluene, 300.65 K	0.028
in toluene, 303.15 K	0.0312
in toluene, 305.65 K	0.0348
in toluene, 308.15 K	0.039
in toluene, 310.65 K	0.0438
in toluene, 313.15 K	0.0493
